In US9051331B2, “Substituted dihydro benzocycloalkyloxymethyl oxazolopyrimidinones, preparation and use thereof” (Sanofi, priority 2009, dated 2015):

Key:
[1] = DBA/2 mice; cited from earlier work
[2] = biological target: rat or human mGluR2 receptor (UniProt Q14416); assay: calcium ion (Ca2+) mobilization assay for allosteric modulators of mGluR2; type: cell-based; conditions: potency at approx. EC10 for glutamate; rat or human receptor not given; read-out: mGluR2 Potentiation (EC50)
Description: A calcium ion (Ca^2) mobilization assay was used to identify and determine the activity for allosteric modulators of the rat or human mGluR2 receptor. Two formats were used: (1) examine the ability of glutamate to affect the potency of the modulator, by looking at a concentration-response curve of compound at different submaximal glutamate concentrations, and (2) look at the ability of the modulator to affect the potency of glutamate by looking at a concentration-response curve of glutamate at a maximal modulator concentration.
To monitor functional receptor response using calcium mobilization, a cell line stably expressing the rat or human mGluR2 receptor (normally coupled to its intracellular effector molecules through an inhibitory G-protein, Gαi) and Gα16, in a tetracycline-inducible vector was created. Gα16 can promiscuously couple Gs and Gi-coupled receptors to the inositol phospholipid signaling pathway by activating phospholipase Cβ resulting in a Ca^2+ signal (normally Gαq-mediated), that can be monitored with fluorescence plate readers such as FLIPR (Molecular Devices, Fluorescence Imaging Plate Reader), FDSS6000 (Hamamatsu, Fluorescence Drug Screening System), or FlexStation (Molecular Devices). The Ca^2+ mobilization assay was based on the detection of intracellular calcium changes using a selective, calcium-chelating dye: Fluo-3, Fluo-4, or Calcium-3. A large fluorescence intensity increase was observed upon calcium association with the dye. The dye was delivered either with the acetoxy-methyl ester, and washed off, or using a no-wash kit (Molecular Devices). Fluorescence signals stimulated by glutamate were recorded and used to generate the following pharmacological parameters: (1) the potency (EC50) of the compound(s) of interest at approx. EC 10 for glutamate at the rat and human mGluR2 receptors respectively, and (2) a fold-shift of the glutamate EC50 by maximal concentration of compound(s) of interest.

[3] = pretreatment, healthy human subjects; cited from earlier work
[4] = pentylenetetrazole- and picrotoxin-induced; cited from earlier work
[5] = rat; cited from earlier work
[6] = compared to placebo; cited from earlier work
[7] = some animal models; cited from earlier work
[8] = mice; cited from earlier work

| Compound | EC50 [2] [nM] | also measured |
| --- | --- | --- |
| N[C@H](C(=O)O)c1ccc(C(=O)O)c(O)c1 [(S)-4-carboxy-3-hydroxyphenylglycine] | – | protection against audiogenic seizures [1]: protects against audiogenic seizures |
| O=c1ccn2c(n1)O[C@H](COc1ccc3c(c1)CCC3)C2 [Comparative Ex. 1, (S)-2-(Indan-5-yloxymethyl)-2,3-dihydro-oxazolo[3,2-a]pyrimidin-7-one] | 445 | – |
| O=c1ccn2c(n1)O[C@H](COc1ccc3c(c1)CCCC3)C2 [Comparative Ex. 2, (S)-2-(5,6,7,8-Tetrahydro-naphthalen-2-yloxymethyl)-2,3-dihydro-oxazolo[3,2-a]pyrimidin-7-one] | 224 | – |
| CC1(C)CCc2cc(OC[C@H]3Cn4ccc(=O)nc4O3)ccc21 [Comparative Ex. 3, (R)-2-(1,1-Dimethyl-indan-5-yloxymethyl)-2,3-dihydro-oxazolo[3,2-a]pyrimidin-7-one] | 9100 | – |
| CC1(C)CCc2cc(OC[C@@H]3Cn4ccc(=O)nc4O3)ccc21 [Example 1, (S)-2-(1,1-Dimethyl-indan-5-yloxymethyl)-2,3-dihydro-oxazolo[3,2-a]pyrimidin-7-one] | 29 | – |
| CC1(C)CCCc2cc(OC[C@@H]3Cn4ccc(=O)nc4O3)ccc21 [Example 2, (S)-2-(5,5-Dimethyl-5,6,7,8-tetrahydro-naphthalen-2-yloxymethyl)-2,3-dihydro-oxazolo[3,2-a]pyrimidin-7-one] | 19 | – |
| CC1(C)CCCCc2cc(OC[C@@H]3Cn4ccc(=O)nc4O3)ccc21 [Example 3, (S)-2-(5,5-Dimethyl-6,7,8,9-tetrahydro-5H-benzocyclohepten-2-yloxymethyl)-2,3-dihydro-oxazolo[3,2-a]pyrimidin-7-one] | 11 | – |
| CC1(C)CCC(C)(C)c2cc(OC[C@@H]3Cn4ccc(=O)nc4O3)ccc21 [Example 4, (S)-2-(5,5,8,8-Tetramethyl-5,6,7,8-tetrahydro-naphthalen-2-yloxymethyl)-2,3-dihydro-oxazolo[3,2-a]pyrimidin-7-one] | 15 | – |
| CCc1cn2c(nc1=O)O[C@H](COc1ccc3c(c1)CCC3(C)C)C2 [Example 7, (S)-2-(1,1-Dimethyl-indan-5-yloxymethyl)-6-ethyl-2,3-dihydro-oxazolo[3,2-a]pyrimidin-7-one] | 20 | – |
| CCc1cn2c(nc1=O)O[C@H](COc1ccc3c(c1)CCCC3(C)C)C2 [Example 8, (S)-2-(5,5-Dimethyl-5,6,7,8-tetrahydro-naphthalen-2-yloxymethyl)-6-ethyl-2,3-dihydro-oxazolo[3,2-a]pyrimidin-7-one] | 17 | – |
| CCC(F)(F)c1cc(=O)nc2n1C[C@@H](COc1ccc3c(c1)CCC3(C)C)O2 [Example 9, (S)-5-(1,1-Difluoro-propyl)-2-(1,1-dimethyl-indan-5-yloxymethyl)-2,3-dihydro-oxazolo[3,2-a]pyrimidin-7-one] | 64 | – |
| CCC(F)(F)c1cc(=O)nc2n1C[C@@H](COc1ccc3c(c1)CCCC3(C)C)O2 [Example 10, (S)-5-(1,1-Difluoro-propyl)-2-(5,5-dimethyl-5,6,7,8-tetrahydro-naphthalen-2-yloxymethyl)-2,3-dihydro-oxazolo[3,2-a]pyrimidin-7-one] | 15 | – |
| N[C@@]1(C(=O)O)CC[C@H]2[C@H](C(=O)O)[C@H]21 [LY354740] | – | effect on ketamine-disrupted working memory [3]: attenuation of the disruptive effects; effect on chemically induced seizures [4]: attenuates pentylenetetrazole- and picrotoxin-induced seizures |
| N[C@@]1(C(=O)O)CO[C@H]2[C@H](C(=O)O)[C@H]21 [LY379268] | – | effect on REM sleep and fast EEG [5]: suppresses rapid eye movement (REM) sleep and fast EEG |
| CSCC[C@H](N)C(=O)N[C@@]1(C(=O)O)CS(=O)(=O)[C@H]2[C@H](C(=O)O)[C@H]21 [LY2140023] | – | positive and negative symptoms of schizophrenia [6]: statistically significant improvements |
| N[C@]1(C(=O)O)[C@H]2[C@@H](C[C@H]1OCc1ccc(Cl)c(Cl)c1)[C@]2(F)C(=O)O [MGS0039] | – | antidepressant-like effects [7]: dose-dependent antidepressant-like effects |
| Cc1c(OCc2cccc(-c3ccc(C(=O)O)cc3)c2)cc2c(c1C)C(=O)C(C1CCCC1)C2 (stereo not drawn) [biphenyl-indanone A] | – | antipsychotic- and anxiolytic-like effects [8]: antipsychotic- and anxiolytic-like effects in mice |
